Publication PMC10381309 (Journal of Fungi, 2023)
Converted amounts (≈) assume the structure as drawn.

What was measured:
Assay type in all cases: cell-based
[1] = tested on: Fonsecaea pedrosoi (CFP 00791); assay: NIH Clinical Collection screening for antifungal activity (growth inhibition, OD 530 nm); conditions: Fonsecaea pedrosoi, read-out: % Growth Inhibition
Protocol: These substances are part of the NIH Roadmap Molecular Libraries Screening Centers Network screening library, a collection of chemically diverse substances in Phase I-III clinical trials. Each substance was initially diluted to 1 mM in DMSO and stored at −20 °C until use. […] The final DMSO concentration corresponded to 0.5% v/v. The inoculum was prepared according to the protocol for filamentous fungi proposed by the European Committee on Antimicrobial Susceptibility Testing—EUCAST, with minor modifications. […] After growth, conidia were suspended in 3 mL of sterile distilled water with 0.1% Tween 20, vortexed, and the concentration adjusted to the 0.5 McFarland scale. The suspension was then diluted 1:10 in order to obtain a final working inoculum at 2–5 × 10^5 CFU/mL. Next, 100 µL of the inoculum was added to each well and the plates incubated at 35 °C for 72–96 h. Negative and positive controls consisted of culture medium alone and drug-free culture medium with the fungal inoculum previously described, respectively. Plates were read using a microplate reader (Epoch, Biotek, Wenusky, VT, USA) with a 530 nm filter to obtain the optical density. All plates were also visually read to confirm the equipment data. A calculation was performed to obtain the percentage of inhibition of fungal growth, according to the formula: (1 − (OD1/OD2)) × 100, where OD1 = optical density of the fungus in the presence of the drug; and OD2 = optical density of the growth control drug-free well.

[2] = tested on: Cladophialophora carrionii (CFP 00910); assay: MIC determination (EUCAST, minor modifications); conditions: for Selectivity Index (SI): C. carrionii
Protocol: (§1) Minimum inhibitory concentrations (MICs) were determined using the method proposed by the European Committee on Antimicrobial Susceptibility Testing (EUCAST), with minor modifications. Hit drugs were serially diluted (80 μM to 0.15625 μM) in RPMI 1640 (twice concentrated, pH 7; supplemented with 2% glucose) buffered with MOPS in 96-well plates. The inoculums of all strains were prepared following the EUCAST protocol. Plates were incubated at 35 °C for 72–96 h. The MIC of the NCC substances was determined as the lowest concentration capable of inhibiting 100% of fungal growth when compared to the growth control well. MIC values were determined in duplicate.

[3] = tested on: Exophiala dermatitidis (ATCC 28869); assay: MIC determination (EUCAST, minor modifications); conditions: for Selectivity Index (SI): E. dermatitidis
Protocol: as §1

[4] = tested on: Exophiala heteromorpha (ATCC 28180); assay: MIC determination (EUCAST, minor modifications); conditions: for Selectivity Index (SI): E. heteromorpha
Protocol: as §1

[5] = tested on: Fonsecaea monophora (CFP 00911); assay: MIC determination (EUCAST, minor modifications); conditions: for Selectivity Index (SI): F. monophora
Protocol: as §1

[6] = tested on: Fonsecaea nubica (CFP 00912); assay: MIC determination (EUCAST, minor modifications); conditions: for Selectivity Index (SI): F. nubica
Protocol: as §1

[7] = tested on: Fonsecaea pedrosoi (CFP 00791); assay: MIC determination (EUCAST, minor modifications); conditions: for Selectivity Index (SI): F. pedrosoi
Protocol: as §1

[8] = tested on: Phialophora verrucosa (CFP 00937); assay: MIC determination (EUCAST, minor modifications); conditions: for Selectivity Index (SI): P. verrucosa
Protocol: as §1

[9] = tested on: Rhinocladiela similis (CFP 00790); assay: MIC determination (EUCAST, minor modifications); conditions: for Selectivity Index (SI): R. similis
Protocol: as §1

[10] = tested on: Cladophialophora carrionii (CFP 00910); assay: Minimum fungicidal concentration determination
Protocol: The MFC was determined as the lowest drug concentration without fungal growth on Sabouraud agar after five days of incubation at 35 °C.

[11] = tested on: Fonsecaea pedrosoi (CFP 00791); assay: Chequerboard synergism assay (FICI); conditions: F. pedrosoi
Protocol: (§2) To assess the type of interaction between the hit drugs and the antifungal drugs most used in the treatment of CBM (itraconazole and terbinafine), the fractional inhibitory concentration index (FICI) was determined, which defines the type of interaction between drugs in combination as follows: synergism if FICI ≤ 0.5; indifference if 0.5 < FICI ≤ 4; and antagonism if FICI > 4 [39]. The FICI was obtained by the sum of the fractional inhibitory concentrations (FIC) or by the formula: (A/MIC(a) = FIC_A) + (B/MIC(b) = FIC_B) = FICI, where: A = MIC of the drug (a) in combination; MIC (a) = MIC of drug (a) alone; B = MIC of drug (b) in combination; and MIC (b) = MIC of drug (b) alone. The test was carried out using the chequerboard method, in which the two drugs were applied in a single well of a 96-well plate, so that in each of the wells there were different concentrations of the combinations between the substance and the antifungal agent (Figure S1). Drug dilutions were prepared following the methodology proposed by EUCAST, starting from a stock solution of the hit drug or antifungal drug 100× concentrated, according to the methodology described to determine the MIC [36]. Hit drug A/antifungal drug B serial microdilution preparations were performed following the above mentioned protocol, observing the final concentration in the wells after the addition of drugs and inoculum. […] Column 12 was reserved for drug B (itraconazole or terbinafine) susceptibility testing. Row H was reserved for the selected NCC substance. The other combined drug and substance concentrations were distributed between columns 2 and 11 in rows A to G. Drug concentrations ranged from 0.062 μM to 4 µM for itraconazole and terbinafine, and from 0.125 μM to 64 µM for the hit drug on the combination boards.

[12] = tested on: Rhinocladiela similis (CFP 00790); assay: Chequerboard synergism assay (FICI); conditions: R. similis
Protocol: as §2

SMILES: CCCSc1ccc2nc(NC(=O)OC)[nH]c2c1 [Albendazole]
- inhibition at 10 µM [1]: 98%
- Selectivity Index (SI) ([2]; CC50 HaCat 96 h / MIC): 34.04
- Selectivity Index (SI) ([2]; CC50 Vero 24 h / MIC): 150.94
- Selectivity Index (SI) ([2]; CC50 Vero 96 h / MIC): 104.62
- MIC ([2]; Cladophialophora carrionii): 2.5 µM (≈ 0.663 µg/mL)
- Selectivity Index (SI) ([3]; CC50 HaCat 96 h / MIC): 34.04
- Selectivity Index (SI) ([3]; CC50 Vero 24 h / MIC): 150.94
- Selectivity Index (SI) ([3]; CC50 Vero 96 h / MIC): 104.62
- MIC ([3]; Exophiala dermatitidis, ATCC28869): 2.5 µM (≈ 0.663 µg/mL)
- Selectivity Index (SI) ([4]; CC50 HaCat 96 h / MIC): 34.04
- Selectivity Index (SI) ([4]; CC50 Vero 24 h / MIC): 150.94
- Selectivity Index (SI) ([4]; CC50 Vero 96 h / MIC): 104.62
- MIC ([4]; Exophiala heteromorpha, ATCC28180): 2.5 µM (≈ 0.663 µg/mL)
- Selectivity Index (SI) ([5]; CC50 HaCat 96 h / MIC): 136.16
- Selectivity Index (SI) ([5]; CC50 Vero 24 h / MIC): 603.76
- Selectivity Index (SI) ([5]; CC50 Vero 96 h / MIC): 418.49
- MIC ([5]; Fonsecaea monophora): 0.625 µM (≈ 0.166 µg/mL)
- Selectivity Index (SI) ([6]; CC50 HaCat 96 h / MIC): 136.16
- Selectivity Index (SI) ([6]; CC50 Vero 24 h / MIC): 603.76
- Selectivity Index (SI) ([6]; CC50 Vero 96 h / MIC): 418.49
- MIC ([6]; Fonsecaea nubica): 0.625 µM (≈ 0.166 µg/mL)
- Selectivity Index (SI) ([7]; CC50 HaCat 96 h / MIC): 68.08
- Selectivity Index (SI) ([7]; CC50 Vero 24 h / MIC): 301.88
- Selectivity Index (SI) ([7]; CC50 Vero 96 h / MIC): 209.24
- MIC ([7]; Fonsecaea pedrosoi): 1.25 µM (≈ 0.332 µg/mL)
- Selectivity Index (SI) ([8]; CC50 HaCat 96 h / MIC): 136.16
- Selectivity Index (SI) ([8]; CC50 Vero 24 h / MIC): 603.76
- Selectivity Index (SI) ([8]; CC50 Vero 96 h / MIC): 418.49
- MIC ([8]; Phialophora verrucosa): 0.625 µM (≈ 0.166 µg/mL)
- MIC [9]: 1.25 µM (≈ 0.332 µg/mL)
- Selectivity Index (SI) ([9]; CC50 HaCat 96 h / MIC): 68.08
- Selectivity Index (SI) ([9]; CC50 Vero 24 h / MIC): 301.88
- Selectivity Index (SI) ([9]; CC50 Vero 96 h / MIC): 209.24
- MFC:MIC Ratio ([10]; C. carrionii): 8
- MFC ([10]; Cladophialophora carrionii): 20 µM (≈ 5.31 µg/mL)
- FICI Albendazole + Itraconazole ([11]; combination with itraconazole): 1
- FICI Albendazole + Terbinafine ([11]; combination with terbinafine): 1.12
- FICI Albendazole + Itraconazole ([12]; combination with itraconazole): 0.62
- FICI Albendazole + Terbinafine ([12]; combination with terbinafine): 2
